Data reported in ChEMBL document CHEMBL5465560, “Selectivity Literature for EUbOPEN Chemogenomic Library” (2024).

Key:
[1] = target: T1, Homeodomain-interacting protein kinase 2 (Homo sapiens, UniProt Q9H2X6); assay: Selectivity interaction (Eurofins binding assay) EUB0000008b HIPK2
Target sequence in this assay (Q9H2X6 whole entry): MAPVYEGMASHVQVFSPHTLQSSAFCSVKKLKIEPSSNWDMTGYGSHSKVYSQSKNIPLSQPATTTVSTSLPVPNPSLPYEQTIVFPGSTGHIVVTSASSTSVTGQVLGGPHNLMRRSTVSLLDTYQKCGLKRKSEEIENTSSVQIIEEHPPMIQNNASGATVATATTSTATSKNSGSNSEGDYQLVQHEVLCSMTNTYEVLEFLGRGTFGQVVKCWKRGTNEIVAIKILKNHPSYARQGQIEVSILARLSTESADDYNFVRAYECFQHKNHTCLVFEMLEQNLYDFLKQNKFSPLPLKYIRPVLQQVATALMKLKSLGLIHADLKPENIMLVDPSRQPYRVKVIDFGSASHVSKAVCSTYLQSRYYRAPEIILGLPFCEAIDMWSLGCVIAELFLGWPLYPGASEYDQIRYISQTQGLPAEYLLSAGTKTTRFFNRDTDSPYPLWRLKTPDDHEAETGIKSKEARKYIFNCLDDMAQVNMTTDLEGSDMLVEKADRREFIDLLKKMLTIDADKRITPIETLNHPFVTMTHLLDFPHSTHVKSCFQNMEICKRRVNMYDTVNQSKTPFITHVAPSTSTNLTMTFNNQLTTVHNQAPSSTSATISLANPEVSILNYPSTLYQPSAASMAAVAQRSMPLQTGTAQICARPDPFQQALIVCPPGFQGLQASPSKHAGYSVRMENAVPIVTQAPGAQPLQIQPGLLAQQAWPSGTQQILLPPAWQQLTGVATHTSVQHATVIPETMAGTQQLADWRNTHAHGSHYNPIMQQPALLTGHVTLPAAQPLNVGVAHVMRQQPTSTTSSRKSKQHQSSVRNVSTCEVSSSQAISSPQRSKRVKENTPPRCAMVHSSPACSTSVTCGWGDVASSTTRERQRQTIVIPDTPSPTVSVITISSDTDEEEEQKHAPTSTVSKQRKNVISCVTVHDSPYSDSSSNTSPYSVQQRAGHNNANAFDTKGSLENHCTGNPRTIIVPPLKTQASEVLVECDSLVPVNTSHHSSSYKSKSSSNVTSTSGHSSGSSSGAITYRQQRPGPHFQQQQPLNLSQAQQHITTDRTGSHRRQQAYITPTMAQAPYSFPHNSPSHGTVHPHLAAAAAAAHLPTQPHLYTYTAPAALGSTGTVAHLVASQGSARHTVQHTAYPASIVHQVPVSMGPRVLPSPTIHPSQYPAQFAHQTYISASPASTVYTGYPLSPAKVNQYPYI

[2] = target: Homeodomain-interacting protein kinase 4 (Homo sapiens, UniProt Q8NE63); assay: Selectivity interaction (NanoBRET assay (using HEK293T cells)) EUB0000008b HIPK4; format: cell-based, HEK-293T
[3] = target: Glycogen synthase kinase-3 alpha (Homo sapiens, UniProt P49840); assay: Selectivity interaction (Eurofins kinase panel) EUB0000008b GSK3A; conditions: at 1 µM
[4] = target: T1, Homeodomain-interacting protein kinase 2; assay: Selectivity interaction (NanoBRET assay (using HEK293T cells)) EUB0000008b HIPK2; format: cell-based, HEK-293T
Target sequence in this assay (Q9H2X6 whole entry): as above

[5] = target: Homeodomain-interacting protein kinase 3 (Homo sapiens, UniProt Q9H422); assay: Selectivity interaction (Eurofins kinase panel) EUB0000008b HIPK3; conditions: at 1 µM
Chain of Homeodomain-interacting protein kinase 3 (Q9H422 whole entry, looked up): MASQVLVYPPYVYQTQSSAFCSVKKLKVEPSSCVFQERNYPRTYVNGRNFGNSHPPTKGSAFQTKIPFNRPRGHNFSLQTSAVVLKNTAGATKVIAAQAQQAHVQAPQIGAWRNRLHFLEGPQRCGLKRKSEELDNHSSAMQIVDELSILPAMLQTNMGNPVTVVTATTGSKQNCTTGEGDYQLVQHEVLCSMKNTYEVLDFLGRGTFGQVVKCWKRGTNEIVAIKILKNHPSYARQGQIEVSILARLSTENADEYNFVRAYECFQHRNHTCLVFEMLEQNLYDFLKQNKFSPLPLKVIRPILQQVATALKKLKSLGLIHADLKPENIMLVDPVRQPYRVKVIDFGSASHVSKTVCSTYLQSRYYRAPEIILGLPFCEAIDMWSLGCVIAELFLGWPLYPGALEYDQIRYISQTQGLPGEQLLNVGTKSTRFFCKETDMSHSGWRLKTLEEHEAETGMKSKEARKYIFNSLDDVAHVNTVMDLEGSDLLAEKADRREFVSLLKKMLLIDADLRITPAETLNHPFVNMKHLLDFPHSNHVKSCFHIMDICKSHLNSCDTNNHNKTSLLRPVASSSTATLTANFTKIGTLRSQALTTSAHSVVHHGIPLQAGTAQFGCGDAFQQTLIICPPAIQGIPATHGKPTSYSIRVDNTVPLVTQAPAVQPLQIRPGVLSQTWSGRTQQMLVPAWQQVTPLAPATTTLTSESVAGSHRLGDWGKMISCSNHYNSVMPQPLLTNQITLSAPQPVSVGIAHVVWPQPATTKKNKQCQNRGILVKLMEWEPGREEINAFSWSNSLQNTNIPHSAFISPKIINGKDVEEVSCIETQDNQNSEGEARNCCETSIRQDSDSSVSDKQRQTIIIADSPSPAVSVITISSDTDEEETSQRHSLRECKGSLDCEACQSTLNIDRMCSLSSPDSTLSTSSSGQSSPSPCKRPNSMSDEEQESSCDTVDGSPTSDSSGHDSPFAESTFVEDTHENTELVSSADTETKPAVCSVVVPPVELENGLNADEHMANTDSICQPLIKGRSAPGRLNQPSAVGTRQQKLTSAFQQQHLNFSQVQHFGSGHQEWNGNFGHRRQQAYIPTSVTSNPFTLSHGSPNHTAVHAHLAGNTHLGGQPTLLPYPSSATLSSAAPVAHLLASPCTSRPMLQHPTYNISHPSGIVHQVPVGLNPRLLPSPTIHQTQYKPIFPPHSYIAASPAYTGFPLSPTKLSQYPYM

[6] = target: T1, Homeodomain-interacting protein kinase 2; assay: Selectivity interaction (Eurofins kinase panel) EUB0000008b HIPK2; conditions: at 1 µM
Target sequence in this assay (Q9H2X6 whole entry, looked up): as the sequence (Q9H2X6 whole entry) above

[7] = target: Microtubule-associated serine/threonine-protein kinase 1 (Homo sapiens) (UniProt Q9Y2H9); assay: Selectivity interaction (KinomeScan (DiscoverX)) EUB0001877a MAST1; conditions: at 1 µM
Chain of Microtubule-associated serine/threonine-protein kinase 1 (Homo sapiens) (Q9Y2H9 whole entry, looked up): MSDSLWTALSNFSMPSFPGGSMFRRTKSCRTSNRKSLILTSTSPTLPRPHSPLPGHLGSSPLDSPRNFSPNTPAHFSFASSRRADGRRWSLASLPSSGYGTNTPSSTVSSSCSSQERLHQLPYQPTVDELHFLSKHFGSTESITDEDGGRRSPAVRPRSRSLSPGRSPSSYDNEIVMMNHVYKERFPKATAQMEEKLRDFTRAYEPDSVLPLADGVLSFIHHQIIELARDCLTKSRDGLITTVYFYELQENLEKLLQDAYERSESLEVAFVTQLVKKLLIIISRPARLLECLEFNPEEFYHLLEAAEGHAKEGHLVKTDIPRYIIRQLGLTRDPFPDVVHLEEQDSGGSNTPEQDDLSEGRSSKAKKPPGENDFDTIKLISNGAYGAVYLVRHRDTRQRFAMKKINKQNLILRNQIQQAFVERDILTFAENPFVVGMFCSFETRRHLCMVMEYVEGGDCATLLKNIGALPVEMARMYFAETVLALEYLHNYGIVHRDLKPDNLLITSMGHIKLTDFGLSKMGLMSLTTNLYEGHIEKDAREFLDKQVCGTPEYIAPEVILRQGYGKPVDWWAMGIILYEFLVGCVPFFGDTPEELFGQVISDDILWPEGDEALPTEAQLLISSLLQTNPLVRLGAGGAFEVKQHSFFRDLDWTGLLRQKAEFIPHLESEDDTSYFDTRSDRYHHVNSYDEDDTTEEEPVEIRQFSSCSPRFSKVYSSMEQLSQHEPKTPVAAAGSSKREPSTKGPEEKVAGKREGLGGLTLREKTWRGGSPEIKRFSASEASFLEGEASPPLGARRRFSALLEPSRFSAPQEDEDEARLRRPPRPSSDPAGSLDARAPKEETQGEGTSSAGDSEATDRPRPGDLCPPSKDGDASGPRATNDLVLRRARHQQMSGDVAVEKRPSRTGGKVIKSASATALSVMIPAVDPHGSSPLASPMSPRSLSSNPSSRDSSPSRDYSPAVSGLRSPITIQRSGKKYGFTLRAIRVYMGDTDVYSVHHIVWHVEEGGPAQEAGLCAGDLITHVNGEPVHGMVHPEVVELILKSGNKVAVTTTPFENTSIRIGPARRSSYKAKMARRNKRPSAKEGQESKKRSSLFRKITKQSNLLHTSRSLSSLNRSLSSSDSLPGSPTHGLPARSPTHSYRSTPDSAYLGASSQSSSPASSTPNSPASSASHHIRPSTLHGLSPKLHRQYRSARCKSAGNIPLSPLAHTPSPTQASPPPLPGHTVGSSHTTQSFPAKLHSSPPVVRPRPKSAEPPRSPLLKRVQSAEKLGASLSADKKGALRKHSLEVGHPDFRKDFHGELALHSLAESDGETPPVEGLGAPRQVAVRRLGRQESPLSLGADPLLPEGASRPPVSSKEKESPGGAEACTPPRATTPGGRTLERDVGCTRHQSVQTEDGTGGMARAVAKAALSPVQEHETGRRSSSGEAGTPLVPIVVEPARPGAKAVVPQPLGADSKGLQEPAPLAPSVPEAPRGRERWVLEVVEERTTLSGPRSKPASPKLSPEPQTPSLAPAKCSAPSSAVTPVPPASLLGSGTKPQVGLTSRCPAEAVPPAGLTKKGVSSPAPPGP

Chain of Homeodomain-interacting protein kinase 4 (Q8NE63 whole entry): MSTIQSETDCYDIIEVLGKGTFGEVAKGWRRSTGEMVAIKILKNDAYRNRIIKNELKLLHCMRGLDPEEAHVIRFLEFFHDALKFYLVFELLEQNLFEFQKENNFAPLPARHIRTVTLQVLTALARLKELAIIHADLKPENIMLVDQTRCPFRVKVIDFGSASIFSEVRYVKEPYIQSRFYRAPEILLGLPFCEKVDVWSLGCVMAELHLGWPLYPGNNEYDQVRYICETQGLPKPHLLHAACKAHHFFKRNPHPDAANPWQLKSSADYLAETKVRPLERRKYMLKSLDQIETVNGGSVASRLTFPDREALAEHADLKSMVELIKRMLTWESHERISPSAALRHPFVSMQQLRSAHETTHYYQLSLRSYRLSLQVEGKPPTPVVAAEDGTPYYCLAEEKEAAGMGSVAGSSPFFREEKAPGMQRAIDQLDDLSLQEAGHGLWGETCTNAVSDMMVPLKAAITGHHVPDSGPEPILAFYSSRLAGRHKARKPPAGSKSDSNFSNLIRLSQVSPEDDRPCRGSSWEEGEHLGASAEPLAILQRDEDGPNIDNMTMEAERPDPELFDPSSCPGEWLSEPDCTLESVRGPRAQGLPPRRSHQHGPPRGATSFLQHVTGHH

| SMILES | IC50 [1] | IC50 [2] | % of activity [3] | IC50 [4] | % of activity [5] | % of activity [6] | % of control [7] |
| --- | --- | --- | --- | --- | --- | --- | --- |
| Cn1cc(-c2ccc3occ(-c4cccc(-c5ccncc5)c4)c3n2)cn1 | 23 nM | 5.41 µM | 90% | > 10 µM | 94% | 99% |  |
| Nc1ncc2c(n1)-c1c([nH]c3ccc(C4CC4)cc13)CCCC2 |  |  |  |  |  |  | 32% |
